Structures can show the parent of a compound that is named as a salt. Where two headings read alike, the source gives them in different places.

Here are results for 8 compounds from US20230174975A1 (priority 2020, published 2023).

Data set [1] has as its system methylenetetrahydrofolate dehydrogenase 1 (MTHFD1). In words: Knockdown of endogenous gene in A549 cells by Cas13d and crRNAs (qPCR). It is filed as cell-based, human. Conditions: 3 days. A general note: In qPCR the cycle at which signal appears reflects the starting amount.
The test system of data set [2] is 229E. The class given is cell-based, human 229E coronavirus.
For data set [3], the system named is 229E. It is filed as cell-based, human 229E coronavirus. The source holds these as a separate data set.
The test system of a further data set is 229E virus. In words: organism not typed. The class given is cell-based, human 229E coronavirus. Conditions: for combination effect with Camostat mesylate (in words) / combination effect with IFNα 4b (in words) / inhibition of virus replication: PAC-MAN with the guide; for inhibition of virus replication: no drug, 24 hpi, vs NT6.
Data set [4] has as its system transmembrane protease, serine 2 (TMPRSS2). In words: Knockdown of endogenous gene in A549 cells by Cas13d and crRNAs (qPCR). The class given is cell-based, human. Particulars: 3 days.
A further data set deals with SARS-CoV-2. The class given is cell-based. Particulars: supernatant test, SARS-CoV-2 MOI=0.01.
[5] abbreviates: single agent alone, vs control (NT).

With “SEQ ID NO: 13606: crRNA targeting endogenous gene MTHFD1 (guide CAATATCATAAAAACAGGGCCGG; chemistry not fully specified)”, the “knockdown of MTHFD1 mRNA (in words)” value in data set [1] is on record as “efficiently knocked down”.
“crR19: crRNA (guide) targeting RdRP of human 229E coronavirus; not R19 of Table 9 (guide CCAGCAGAAAUAAUACGGCUAG; chemistry not given here)”: the “inhibition of virus replication” value with 229E [2] was “about 80%”.
As for “crN1: crRNA (guide) targeting N gene of human 229E coronavirus; not N1 of Table 9 (guide AGCCCAUUUGACUGUAGCCAUC; chemistry not given here)”, in the data set on 229E [3], the cells alive result is given as “more than 90%”. Moreover, the “inhibition of virus replication” value in the data set on 229E [2] is given as “about 80%”.
On to “R19: crRNA targeting SARS-CoV-2 RdRP sequence (Table 8); not 229E crR19 (guide CACCATCGTAACAATCAAAGTA; chemistry not given here)”, for which, in the data set on 229E virus, the “combination effect with Camostat mesylate (in words)” value is listed as “promising synergistic effect”, the “combination effect with IFNα 4b (in words)” value is “minus effect” and the “inhibition of virus replication” value is listed as 50%.
As for “crR8: crRNA (guide) targeting RdRP of human 229E coronavirus (guide AAUCUUUAAUUGCAGCAUCACC; chemistry not given here)”, in the data set on 229E [2], the “inhibition of virus replication” value is reported as “about 80%”.
“SEQ ID NO: 13605: crRNA targeting endogenous gene TMPRSS2 (guide TACAGCGTAAAGAAACCACTGCT; chemistry not fully specified)”: the “knockdown of TMPRSS2 mRNA (in words)” value in data set [4] is “efficiently knocked down”.
The EC50 is the concentration that produces a half-maximal response. With `CN(C)C(=O)COC(=O)Cc1ccc(OC(=O)c2ccc(NC(=N)N)cc2)cc1` [Camostat mesylate, reference compound], the cytotoxicity entry was “no obvious cytotoxicity”. Further, in the data set on 229E virus, the EC50 was approximately 500 µM and the “combination effect of the drug with PAC-MAN (in words)” value is given as “synergistic effects”. The “fold decrease of virus titer” value in the data set on 229E virus (setting [5]) stood at 2.4 fold.
Take “N20: crRNA tested against live SARS-CoV-2 in Cas13d VeroE6 cells; best crRNA of that screen (guide ACUUCAUCAAUUAUGUCAGUUU; chemistry not given here)”: the “protection of cells from death by 229E infection (in words)” value with 229E [3] (229E MOI 0.01, up to 5 day infection) is on record as “protected the cells from death”. Besides, the “protection of cells from death at different MOIs (in words)” value in the data set on 229E [3] (229E MOI up to 1.0 (FIG. 21A)) is “protected the cells from death”. For the same compound, in the data set on 229E virus, the “combination effect with Camostat mesylate (in words)” value is listed as “promising synergistic effect”, the “combination effect with IFNα 4b (in words)” value is recorded as “additive effect” and the “inhibition of virus replication” value was found to be 84%. In the data set on 229E virus (PAC-MAN with the guide combined with IFNα 4b, vs NT), the “fold decrease of virus titer” value came to 10.1 fold. Moreover, the “fold decrease of virus titer” value with 229E virus (setting [5]) was determined as 6.2 fold. In addition, in the data set with 229E [2] (guide screening, MRC-5 cells, viral titer in supernatant by RT-qPCR (FIG. 11)), the “inhibition of virus replication” value is 95%. Besides, in the data set with SARS-CoV-2, the “repression efficiency (viral RNA load)” value stood at 96%.
